The record followed here is publication PMC8178997 (Chemical Science, 2020).

Where no end group is shown, it is not given here.

The assay has as its target T1, NCBD (the [2066–2112]-fragment of CBP) (Mus musculus, UniProt P45481).
T1 sequence (P45481 2066-2112): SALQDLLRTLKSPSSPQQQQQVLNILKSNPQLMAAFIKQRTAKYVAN
Nature of the assay: Isothermal titration calorimetry. It counts as binding.

In the case of “EGQMDERALLEQLHQLLSNTDATGLEEIDRALGIPELVNQGQALEPK [[S1043M;D1050E;T1054Q]]”, the Kd came to 188 nM. This lies in the sub-micromolar range.

Usually Kd stands for the equilibrium constant for the complex coming apart. Read a high Kd as a looser complex.
